In brackets after ≈: the same amount, converted by molar mass.
System: Staphylococcus aureus CNCM 53154
Experiment: Minimum bactericidal concentration, 30 min contact, strain 1
Assay type: cell-based
Settings: CNCM53154, 0.5 h; Staphylococcus aureus CNCM 53154; contact time 30 minutes; solubilizing agent (water, TEG or acetone) given per product; read-out: MBC, strain 1
Method: (§1) A bacterial inoculum is brought into contact with different dilutions of the test product for a limited time of 30 minutes. When the contact time has ended, an aliquot of the bacterial suspension/product mixture is deposited on the surface of a gelose culture medium containing an agent for neutralizing the antibacterial activity of the product. The bactericidal concentration chosen is the minimum concentration of the product which is necessary to prevent bacterial growth. This concentration is expressed in μg/ml.
1 - Staphylococcus aureus CNCM 53154;
(§2) The strains are maintained on Tryptic Soy Agar (TSA) marketed by Difco.
(§3) After 24 hours of culture at 37° C., the microbial growth is harvested with the aid of glass beads and 10 ml of diluent containing 1 g of tryptone and 8.5 g of sodium chloride in 1000 ml of distilled water. The suspension formed is shaken and the percentage transmission of light at 620 nm is measured on a spectrophotometer:
(§4) The bacterial inoculum corresponds to a 1/20 dilution of this bacterial suspension.
(§5) Plates containing cups receive different dilutions of the test product. These dilutions of the test product are brought into contact with the different bacterial suspensions using a multiple-site inoculator. After a contact time of 30 minutes, aliquots are transferred by means of this inoculator to the surface of a gelose medium (TSA) placed in petri dishes and containing an agent for neutralizing the activity, namely 20 g of lubrol W, 2.5 g of Tween 80, 2.5 g of sodium thiosulfate and 1% of egg yolk in 1000 ml of TSA (Difco). A reference for the efficacy of the neutralizing agent is prepared for each test product by depositing an aliquot of the dilution of the test product on the surface of the culture medium. After drying, the corresponding inoculum is deposited in the same place. A reference inoculum is prepared on a gelose medium with and without neutralizing agent. The results are read off after 48 hours of incubation at 37° C.
(§6) They indicate the minimum bactericidal concentrations (MBC) for strains 1, 2, 3 and 4 and the minimum fungicidal concentrations (MFC) for strain 5.

SMILES | MBC
OC(COc1ccc(Cl)cc1Cc1ccccc1)CN1CCC(Cc2ccccc2)CC1 (racemic) [SR 44719 B] | 10 µg/mL (≈ 22.2 µM)
OC(COc1cc(Br)c2ccccc2c1)CN1CCC(Cc2ccccc2)CC1 (racemic) [SR 44674 A] | 10 µg/mL (≈ 22 µM)
OC(COc1ccc(Cl)c(Cl)c1)CN1CCC(Cc2ccc(Cl)cc2)CC1 (racemic) [SR 45553 A] | 10 µg/mL (≈ 23.3 µM)
OC(CSc1ccc(Cl)c(Cl)c1)CN1CCCC(Cc2ccccc2)C1 (single isomer, unassigned) [SR 45236 A] | > 200 µg/mL
Cl.OC(COc1ccc2ccccc2c1Br)CN1CCC(Cc2ccccc2)CC1 (stereo not drawn) [SR 44716 A, 1-(4-Benzylpiperidino)-3-(1-bromonaphth-2-yloxy)propan-2-ol hydrochloride] | 50 µg/mL

Same assay, conditions: Staphylococcus aureus CNCM 53154; contact time 30 minutes; solubilizing agent (water, TEG or acetone) given per product

SMILES | MBC, strain 1
OC(CSc1ccc(Cl)c(Cl)c1)CN1CCCC(Cc2ccccc2)C1 (single isomer, unassigned) [SR 45237 A] | > 200 µg/mL
CS(=O)(=O)O.OC(COc1ccc(Cl)cc1Cl)CN1CCCC(Cc2ccccc2)C1 (stereo not drawn) [SR 44957 A, 1-(3-Benzylpiperidino)-3-(2,4-dichlorophenoxy)propan-2-ol methanesulfonate] | 50 µg/mL

System: Streptococcus faecalis CNCM 5855
Experiment: Minimum bactericidal concentration, 30 min contact, strain 2
Assay type: cell-based
Settings: Enterococcus faecalis, CNCM5855, 0.5 h; Streptococcus faecalis CNCM 5855; contact time 30 minutes; solubilizing agent given per product; read-out: MBC, strain 2
Method: as §1
2 - Streptococcus faecalis CNCM 5855;
as §2, §3, §4, §5, §6

SMILES | MBC
OC(COc1ccc(Cl)cc1Cc1ccccc1)CN1CCC(Cc2ccccc2)CC1 (racemic) [SR 44719 B] | 5 µg/mL (≈ 11.1 µM)
OC(COc1cc(Br)c2ccccc2c1)CN1CCC(Cc2ccccc2)CC1 (racemic) [SR 44674 A] | 10 µg/mL (≈ 22 µM)
OC(COc1ccc(Cl)c(Cl)c1)CN1CCC(Cc2ccc(Cl)cc2)CC1 (racemic) [SR 45553 A] | 50 µg/mL (≈ 117 µM)
OC(CSc1ccc(Cl)c(Cl)c1)CN1CCCC(Cc2ccccc2)C1 (single isomer, unassigned) [SR 45236 A] | 50 µg/mL (≈ 122 µM)
Cl.OC(COc1ccc2ccccc2c1Br)CN1CCC(Cc2ccccc2)CC1 (stereo not drawn) [SR 44716 A, 1-(4-Benzylpiperidino)-3-(1-bromonaphth-2-yloxy)propan-2-ol hydrochloride] | 50 µg/mL

Same assay, conditions: Streptococcus faecalis CNCM 5855; contact time 30 minutes; solubilizing agent given per product

SMILES | MBC, strain 2
OC(CSc1ccc(Cl)c(Cl)c1)CN1CCCC(Cc2ccccc2)C1 (single isomer, unassigned) [SR 45237 A] | 50 µg/mL (≈ 122 µM)
CS(=O)(=O)O.OC(COc1ccc(Cl)cc1Cl)CN1CCCC(Cc2ccccc2)C1 (stereo not drawn) [SR 44957 A, 1-(3-Benzylpiperidino)-3-(2,4-dichlorophenoxy)propan-2-ol methanesulfonate] | ≤ 10 µg/mL

System: Pseudomonas aeruginosa CNCM A22
Experiment: Minimum bactericidal concentration, 30 min contact, strain 3
Assay type: cell-based
Settings: CNCMA22, 0.5 h; Pseudomonas aeruginosa CNCM A22; contact time 30 minutes; solubilizing agent given per product; read-out: MBC, strain 3
Method: as §1
3 - Pseudomonas aeruginosa CNCM A22;
as §2, §3, §4, §5, §6

SMILES | MBC
OC(COc1ccc(Cl)cc1Cc1ccccc1)CN1CCC(Cc2ccccc2)CC1 (racemic) [SR 44719 B] | 10 µg/mL (≈ 22.2 µM)
OC(COc1cc(Br)c2ccccc2c1)CN1CCC(Cc2ccccc2)CC1 (racemic) [SR 44674 A] | 10 µg/mL (≈ 22 µM)
OC(COc1ccc(Cl)c(Cl)c1)CN1CCC(Cc2ccc(Cl)cc2)CC1 (racemic) [SR 45553 A] | 50 µg/mL (≈ 117 µM)
OC(CSc1ccc(Cl)c(Cl)c1)CN1CCCC(Cc2ccccc2)C1 (single isomer, unassigned) [SR 45236 A] | 50 µg/mL (≈ 122 µM)
Cl.OC(COc1ccc2ccccc2c1Br)CN1CCC(Cc2ccccc2)CC1 (stereo not drawn) [SR 44716 A, 1-(4-Benzylpiperidino)-3-(1-bromonaphth-2-yloxy)propan-2-ol hydrochloride] | 10 µg/mL

Same assay, conditions: Pseudomonas aeruginosa CNCM A22; contact time 30 minutes; solubilizing agent given per product

SMILES | MBC, strain 3
CS(=O)(=O)O.OC(COc1ccc(Cl)cc1Cl)CN1CCCC(Cc2ccccc2)C1 (stereo not drawn) [SR 44957 A, 1-(3-Benzylpiperidino)-3-(2,4-dichlorophenoxy)propan-2-ol methanesulfonate] | ≤ 10 µg/mL

System: Escherichia coli CNCM 54127
Experiment: Minimum bactericidal concentration, 30 min contact, strain 4
Assay type: cell-based
Settings: CNCM54127, 0.5 h; Escherichia coli CNCM 54127; contact time 30 minutes; solubilizing agent given per product; read-out: MBC, strain 4
Method: as §1
4 - Escherichia coli CNCM 54127.
as §2, §3, §4, §5, §6

SMILES | MBC
OC(COc1ccc(Cl)cc1Cc1ccccc1)CN1CCC(Cc2ccccc2)CC1 (racemic) [SR 44719 B] | 5 µg/mL (≈ 11.1 µM)
OC(COc1cc(Br)c2ccccc2c1)CN1CCC(Cc2ccccc2)CC1 (racemic) [SR 44674 A] | 10 µg/mL (≈ 22 µM)
OC(COc1ccc(Cl)c(Cl)c1)CN1CCC(Cc2ccc(Cl)cc2)CC1 (racemic) [SR 45553 A] | 10 µg/mL (≈ 23.3 µM)
OC(CSc1ccc(Cl)c(Cl)c1)CN1CCCC(Cc2ccccc2)C1 (single isomer, unassigned) [SR 45236 A] | 50 µg/mL (≈ 122 µM)
Cl.OC(COc1ccc2ccccc2c1Br)CN1CCC(Cc2ccccc2)CC1 (stereo not drawn) [SR 44716 A, 1-(4-Benzylpiperidino)-3-(1-bromonaphth-2-yloxy)propan-2-ol hydrochloride] | 10 µg/mL

Same assay, conditions: Escherichia coli CNCM 54127; contact time 30 minutes; solubilizing agent given per product

SMILES | MBC, strain 4
CS(=O)(=O)O.OC(COc1ccc(Cl)cc1Cl)CN1CCCC(Cc2ccccc2)C1 (stereo not drawn) [SR 44957 A, 1-(3-Benzylpiperidino)-3-(2,4-dichlorophenoxy)propan-2-ol methanesulfonate] | ≤ 10 µg/mL

System: Candida albicans CNCM 1180
Experiment: Minimum fungicidal concentration, strain 5
Assay type: cell-based
Settings: CNCM1180, 0.5 h; Candida albicans CNCM 1180; contact time 30 minutes; solubilizing agent given per product; read-out: MFC, strain 5
Method: as §1, §5
The antifungal activity of the products according to the invention was also determined using the method described above. The representative strain of yeast selected for the study was Candida albicans CNCM 1180 (strain 5).
This is maintained on a gelose medium of Sabouraud Dextrose Agar, marketed by Difco. The technique is identical to that described for studying the antibacterial activity. After 48 hours of culture at 37° C., the microbial growth is harvested with the aid of glass beads and 5 ml of diluent containing 1 g of tryptone and 8.5 g of sodium chloride in 1000 ml of distilled water; a further 5 ml of the diluent are then added. In a spectrophotometer, this suspension gives a 2 to 3% transmission of light at 620 nm. The inoculum corresponds to a 1/10 dilution of this microbial suspension. A 1/100 dilution of this suspension, observed between a microscope slide and cover slip through a lens of magnification 40, should show 10 cells per field, which corresponds to 1 000 000 yeasts per ml.
as §6

SMILES | MFC
OC(COc1ccc(Cl)cc1Cc1ccccc1)CN1CCC(Cc2ccccc2)CC1 (racemic) [SR 44719 B] | 10 µg/mL (≈ 22.2 µM)
OC(COc1cc(Br)c2ccccc2c1)CN1CCC(Cc2ccccc2)CC1 (racemic) [SR 44674 A] | 200 µg/mL (≈ 440 µM)
OC(COc1ccc(Cl)c(Cl)c1)CN1CCC(Cc2ccc(Cl)cc2)CC1 (racemic) [SR 45553 A] | 50 µg/mL (≈ 117 µM)
OC(CSc1ccc(Cl)c(Cl)c1)CN1CCCC(Cc2ccccc2)C1 (single isomer, unassigned) [SR 45236 A] | > 200 µg/mL
Cl.OC(COc1ccc2ccccc2c1Br)CN1CCC(Cc2ccccc2)CC1 (stereo not drawn) [SR 44716 A, 1-(4-Benzylpiperidino)-3-(1-bromonaphth-2-yloxy)propan-2-ol hydrochloride] | 50 µg/mL

Same assay, conditions: Candida albicans CNCM 1180; contact time 30 minutes; solubilizing agent given per product

SMILES | MFC, strain 5
OC(CSc1ccc(Cl)c(Cl)c1)CN1CCCC(Cc2ccccc2)C1 (single isomer, unassigned) [SR 45237 A] | > 200 µg/mL
CS(=O)(=O)O.OC(COc1ccc(Cl)cc1Cl)CN1CCCC(Cc2ccccc2)C1 (stereo not drawn) [SR 44957 A, 1-(3-Benzylpiperidino)-3-(2,4-dichlorophenoxy)propan-2-ol methanesulfonate] | 50 µg/mL

From patent US5036077A, “1-(benzylpiperidino)propan-2-ol derivatives, their preparation, their use as antimicrobial agents and the products in which they are present” (Sanofi, priority 1987, dated 1991)
